Values quoted from earlier work as cited in article PMC10667676, “Pharmacokinetics and bioequivalence of sunitinib and Sutent® in Chinese healthy subjects: an open-label, randomized, crossover study” (Frontiers in Pharmacology, 2023).

Key:
CYP enzymes = settings: ref Zhou and Gallo, 2010; Kassem et al., 2012a
[1] = parameters: method as in Bello and e t al., 2006; settings: healthy subjects, high-fat, high-calorie diet, oral 50 mg; ref Bello and e t al., 2006

For `CCN(CC)CCNC(=O)c1c(C)[nH]c(/C=C2\C(=O)Nc3ccc(F)cc32)c1C` [Sunitinib], the “Inhibition or induction of CYP enzymes” value (CYP enzymes) is listed as “unlikely to significantly inhibit or induce”, the “AUC0-∞” value [1] is listed as 1489 (1276–1736) ng*h/mL and the “AUC0–t” value [1] is listed as 1476 (1264–1724) ng*h/mL. The Cmax [1] was 25.1 (21.1–29.7) ng/mL, the Tmax [1] was 8.03 h and the t1/2 [1] was 59.1 h. The Elimination half-life (healthy subjects' plasma, no reference given) was 40 to 60 h, the “Elimination through the feces, share of total administered dose” value (primary route of elimination, ref Adams and Leggas, 2007) was 61% and the “Renal excretion, share of total administered dose” value (ref Adams and Leggas, 2007) was 16%. The “Effect of food consumption on bioavailability” value (ref Bello and e t al., 2006) was “unaltered”.
